Laboratory results reported in PMC11477141, “Chemokine Receptor N-Terminus Charge Dictates Reliance on Post-Translational Modifications for Effective Ligand Capture and Following Boosting by Defense Peptides” (International Journal of Molecular Sciences, 2024).
Where no end group is shown, it is not given here.

Experiments:
naked CCR5 N-terminus = assay: Fluorescence polarization binding to FAM-labeled CCR5 N-terminal peptide; parameters: species or system human
Method: (§1) Fluorescence polarization (FP) assay: The carboxyfluorescein (FAM)-labeled peptides representing the CCR1 and CCR5 N-termini functioned as the probes for quantifying the interaction between the receptor N-terminus and C21TP^81-111. The probe was diluted in FP buffer (1:3, PBS:MilliQ) and 10 µL was added to a final concentration of 250 nM per well in a black 384-well plate (Corning). The C21TP^81-111 peptide (2 mM) was diluted using a two-fold dilution series; 30 µL of the peptide was added to each well to final concentrations ranging from 12.21 nM to 100 µM. Blanks containing 10 µL probe and 30 µL FP buffer were included. The plate was spun down at 1000 rpm for 1 min and the FP signal was measured on a Flex station using SoftMax Pro software 7.0. Each experiment was conducted in triplicate. The binding curves were generated by plotting the FP signal, expressed as millipolarization units (mP), against C21TP^81-111 concentration. The dissociation constant (Kd) value was calculated using GraphPad Prism 9.
(§2) Probes: • CCR1: (5,6-FAM)-[…], • CCR5: (5,6-FAM)-ADYQVSSPIYDINYYTSEP.

naked CCR1 N-terminus = naked CCR1 N-terminus (Homo sapiens, UniProt P32246); assay: Fluorescence polarization binding to FAM-labeled CCR1 N-terminal peptide; settings: FAM probe 250 nM, FP buffer PBS:MilliQ 1:3, peptide 12.21 nM to 100 µM, n = 3, read-out: dissociation constant (Kd) for CCR1 N-terminal peptide
Method: as §1, §2

[1] = tested on: peptides corresponding to the CCR5 receptor N-terminus; settings: cited from earlier work
Description: CCR5, in contrast to CCR1, has an N-terminus that is sparse in acidic amino acids but has multiple tyrosine sulfation sites as well as O-glycosylation sites, that might increase the negative charge of the receptor N-terminus through post-translational modifications. CCL5 affinity towards peptides corresponding to the CCR5 receptor N-terminus increases by ≥100-fold if the peptides are sulfated on Y10 and Y14 [30], and the same tyrosine sulfation is needed for HIV1env protein binding and viral entry.

[2] = target: fully sulfated version of the CCR1 N-terminal peptide; parameters: method as in PMID 30567735; settings: read-out: affinity for the fully sulfated version of the CCR1 N-terminal peptide; cited from earlier work

Sequence of naked CCR1 N-terminus (P32246 with tags, fused parts or gaps limits assumed): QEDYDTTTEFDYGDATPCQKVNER

Row | binding to the naked CCR5 N-terminus (naked CCR5 N-terminus) | Kd (naked CCR1 N-terminus) [nM] | Substance | increase of affinity towards CCR5 N-terminus peptides if sulfated on Y10 and Y14 [1] [fold] | Kd [2] [nM]
1 | no such binding is observed | ~2890 | RKDRGASKTGKKGKGSKGCKRTERSQTPKGP [C21TP^81-111] | – | –
2 | – | – | CCL5: human chemokine from Peprotech, overall basic | ≥ 100 | 100
